Measurements: ChEMBL document CHEMBL4602617, “Discovery and optimization of heteroaryl piperazines as potent and selective PI3Kδ inhibitors” (Bioorg Med Chem Lett, 2020)

Columns and labels:
[1] = molecular target: Tyrosine-protein kinase Lyn (Homo sapiens, UniProt P07948); assay: Inhibition of recombinant full length human His-tagged LYN-A expressed in baculovirus expression system using tyrosine-2 peptide as substrate incubated for 60 mins in presence of ATP by Z'-LYTE assay
[2] = molecular target: Beta-adrenergic receptor kinase 1 (Homo sapiens, UniProt P25098); assay: Inhibition of recombinant full length human His-tagged GRK2 expressed in baculovirus expression system using serine/threonine-16 peptide as substrate incubated for 60 mins in presence of ATP by Z'-LYTE assay
[3] = molecular target: Tyrosine-protein kinase ZAP-70 (Homo sapiens, UniProt P43403); assay: Inhibition of recombinant full length human His-tagged ZAP70 cytoplasmic domain expressed in baculovirus expression system using fluorophore-labeled tyrosine-07 peptide as substrate incubated for 60 mins in presence of ATP by Z'-LYTE assay
[4] = molecular target: cGMP-dependent protein kinase 1 (Homo sapiens, UniProt Q13976); assay: Inhibition of recombinant full length human GST-tagged PRKG1 expressed in baculovirus expression system using serine/threonine-01 peptide as substrate incubated for 60 mins in presence of ATP by Z'-LYTE assay
[5] = molecular target: Macrophage colony-stimulating factor 1 receptor (Homo sapiens, UniProt P07333); assay: Inhibition of recombinant human His-tagged CSF1R catalytic domain (538 to 910 residues) expressed in baculovirus expression system using tyrosine-1 peptide as substrate incubated for 60 mins in presence of ATP by Z'-LYTE assay
[6] = molecular target: Dual specificity mitogen-activated protein kinase kinase 6 (Homo sapiens, UniProt P52564); assay: Inhibition of recombinant full length human His-tagged MAP2K6 expressed in baculovirus expression system using serine/threonine-3 peptide as substrate incubated for 60 mins in presence of ATP by Z'-LYTE assay
[7] = molecular target: Inhibitor of nuclear factor kappa-B kinase subunit epsilon (Homo sapiens, UniProt Q14164); assay: Inhibition of recombinant human full-length GST-tagged IKBKE expressed in baculovirus expression system using Ser/Thr 11 peptide as substrate measured after 1 hr in presence of ATP by Z'-lyte assay
[8] = molecular target: Testis-specific serine/threonine-protein kinase 2 (Homo sapiens, UniProt Q96PF2); assay: Inhibition of recombinant full length human His-tagged STK22B expressed in baculovirus expression system using serine/threonine-04 peptide as substrate incubated for 60 mins in presence of ATP by Z'-LYTE assay
[9] = molecular target: Epidermal growth factor receptor (Homo sapiens, UniProt P00533); assay: Inhibition of human EGFR (668 to 1210 residues) expressed in insect cells at 10 uM using Poly(Glu:Tyr) as substrate after 30 mins by radiometric scintillation analysis relative to control
[10] = molecular target: Mitogen-activated protein kinase 12 (Homo sapiens, UniProt P53778); assay: Inhibition of recombinant full length human His-tagged p38gamma expressed in baculovirus expression system using serine/threonine-3 peptide as substrate incubated for 60 mins in presence of ATP by Z'-LYTE assay
[11] = molecular target: Type-1 angiotensin II receptor (Homo sapiens) (UniProt P30556); assay: Displacement of [125I][Sar1,Ile8]-AT-II from full length human recombinant AT1 receptor expressed in CHOK1 cells at 10 uM measured after 120 mins by radiometric scintillation analysis relative to control; type: cell-based; conditions: CHO-K1
[12] = molecular target: Serine/threonine-protein kinase 4 (Homo sapiens, UniProt Q13043); assay: Inhibition of recombinant full length human GST-tagged MST1 expressed in baculovirus expression system using serine/threonine-7 peptide as substrate incubated for 60 mins in presence of ATP by Z'-LYTE assay
[13] = molecular target: Cytoplasmic tyrosine-protein kinase BMX (Homo sapiens, UniProt P51813); assay: Inhibition of recombinant full length human His-tagged BMX cytoplasmic domain expressed in baculovirus expression system using tyrosine-1 peptide as substrate incubated for 60 mins in presence of ATP by Z'-LYTE assay
[14] = molecular target: Adenosine receptor A2a (Homo sapiens) (UniProt P29274); assay: Displacement of [3H]CGS-21680 from full-length recombinant human A2A receptor expressed in HEK293 cells at 10 uM measured after 90 mins by scintillation counting method relative to control; type: cell-based
[15] = Volume of drug distribution in dog at 0.5 mg/kg, iv or 1 mg/kg, po; type: ADME, organism-based, Canis lupus familiaris; conditions: in vivo
[16] = molecular target: Glucocorticoid receptor (Homo sapiens) (UniProt P04150); assay: Displacement of [3H]dexamethasone from full length human recombinant glucocorticoid receptor expressed in insect cells at 10 uM incubated for 24 hrs by radiometric scintillation analysis relative to control
[17] = molecular target: Serine/threonine-protein kinase Sgk3 (Homo sapiens, UniProt Q96BR1); assay: Inhibition of recombinant human GST-tagged SGK3 catalytic domain (87 to 496 residues) expressed in baculovirus expression system using serine/threonine-6 peptide as substrate incubated for 60 mins in presence of ATP by Z'-LYTE assay
[18] = molecular target: Acetylcholinesterase (Homo sapiens) (UniProt P22303); assay: Inhibition of human recombinant acetylcholine esterase expressed in HEK293 cells at 10 uM using acetylcholine as substrate preincubated for 15 mins followed by substrate addition measured after 20 mins by spectrophotometric analysis relative to control
[19] = molecular target: C-X-C chemokine receptor type 4 (Homo sapiens) (UniProt P61073); assay: Displacement of [125I]SDF-1alpha from recombinant full length human recombinant CXCR4 expressed in Chem-1 cells at 10 uM measured after 90 mins by radiometric scintillation analysis relative to control; type: cell-based
[20] = molecular target: Ephrin type-A receptor 3 (Homo sapiens, UniProt P29320); assay: Inhibition of tracer 236 binding to recombinant human His-tagged EPHA3 (569 to 976 residues) expressed in baculovirus expression system measured after 60 mins in presence of ATP by Lanthascreen assay
[21] = molecular target: Glutamate NMDA receptor (Rattus norvegicus) (UniProt P35439+Q00959+Q00960+Q00961+Q62645+Q8VHN2+Q9R1M7); assay: Displacement of [3H]Ifenprodil from in glutamate NMDA receptor polyamine binding site in Wistar rat cerebral cortex at 10 uM incubated for 120 mins by radiometric scintillation analysis relative to control
[22] = molecular target: Beta-3 adrenergic receptor (Homo sapiens) (UniProt P13945); assay: Displacement of [125I]cyanopindolol from full-length recombinant human beta3 adrenergic receptor expressed in HEK293 cell membranes at 10 uM measured after 90 mins by scintillation counting method relative to control
[23] = molecular target: Fibroblast growth factor receptor 4 (Homo sapiens, UniProt P22455); assay: Inhibition of recombinant human His-tagged FGFR4 catalytic domain ([…]) expressed in baculovirus expression system using tyrosine-4 peptide as substrate incubated for 60 mins in presence of ATP by Z'-LYTE assay
[24] = molecular target: D(2) dopamine receptor (Homo sapiens) (UniProt P14416); assay: Displacement of [3H]spiperone from recombinant full length human recombinant D2S receptor expressed in CHO cells at 10 uM measured after 120 mins by radiometric scintillation analysis relative to control; type: cell-based
[25] = molecular target: Tyrosine-protein kinase receptor UFO (Homo sapiens, UniProt P30530); assay: Inhibition of recombinant full length human GST-tagged AXL expressed in insect expression system using tyrosine-6 peptide as substrate incubated for 60 mins in presence of ATP by Z'-LYTE assay
Tyrosine-protein kinase receptor UFO, sequence (P30530 whole entry): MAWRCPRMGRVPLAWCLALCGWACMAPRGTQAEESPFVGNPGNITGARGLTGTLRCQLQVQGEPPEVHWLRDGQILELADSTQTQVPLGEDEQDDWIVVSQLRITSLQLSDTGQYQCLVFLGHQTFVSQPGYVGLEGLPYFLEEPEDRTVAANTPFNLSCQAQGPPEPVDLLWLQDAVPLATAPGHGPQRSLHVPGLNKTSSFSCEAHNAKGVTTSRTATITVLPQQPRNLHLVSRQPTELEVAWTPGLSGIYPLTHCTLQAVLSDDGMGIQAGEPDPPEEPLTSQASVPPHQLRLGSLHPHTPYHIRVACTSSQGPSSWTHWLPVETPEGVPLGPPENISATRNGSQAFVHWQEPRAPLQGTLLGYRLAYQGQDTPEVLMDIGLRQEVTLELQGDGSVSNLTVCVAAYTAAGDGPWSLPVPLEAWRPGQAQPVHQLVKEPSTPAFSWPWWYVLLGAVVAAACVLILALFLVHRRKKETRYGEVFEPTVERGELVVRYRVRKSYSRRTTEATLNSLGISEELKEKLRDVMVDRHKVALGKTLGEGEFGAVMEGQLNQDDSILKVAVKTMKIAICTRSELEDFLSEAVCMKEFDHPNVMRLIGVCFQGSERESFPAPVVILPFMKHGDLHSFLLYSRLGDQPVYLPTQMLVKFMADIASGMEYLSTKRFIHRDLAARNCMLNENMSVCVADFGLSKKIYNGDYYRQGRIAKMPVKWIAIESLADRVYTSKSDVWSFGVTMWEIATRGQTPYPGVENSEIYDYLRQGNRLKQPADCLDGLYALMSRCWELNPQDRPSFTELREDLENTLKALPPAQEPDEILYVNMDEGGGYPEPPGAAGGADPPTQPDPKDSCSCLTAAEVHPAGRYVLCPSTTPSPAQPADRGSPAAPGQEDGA

Mitogen-activated protein kinase 12, sequence (P53778 whole entry): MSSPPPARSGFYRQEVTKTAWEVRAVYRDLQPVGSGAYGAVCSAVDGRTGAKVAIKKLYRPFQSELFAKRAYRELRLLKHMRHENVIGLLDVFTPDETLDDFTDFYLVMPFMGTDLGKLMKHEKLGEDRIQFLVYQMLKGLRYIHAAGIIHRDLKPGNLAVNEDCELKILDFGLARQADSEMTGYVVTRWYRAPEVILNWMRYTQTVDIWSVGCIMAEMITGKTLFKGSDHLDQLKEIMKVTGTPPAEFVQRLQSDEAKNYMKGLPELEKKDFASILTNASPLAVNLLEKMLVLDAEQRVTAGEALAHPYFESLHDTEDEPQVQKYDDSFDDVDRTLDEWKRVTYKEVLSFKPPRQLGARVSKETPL
Macrophage colony-stimulating factor 1 receptor, sequence (P07333 whole entry, the tested form may be a part): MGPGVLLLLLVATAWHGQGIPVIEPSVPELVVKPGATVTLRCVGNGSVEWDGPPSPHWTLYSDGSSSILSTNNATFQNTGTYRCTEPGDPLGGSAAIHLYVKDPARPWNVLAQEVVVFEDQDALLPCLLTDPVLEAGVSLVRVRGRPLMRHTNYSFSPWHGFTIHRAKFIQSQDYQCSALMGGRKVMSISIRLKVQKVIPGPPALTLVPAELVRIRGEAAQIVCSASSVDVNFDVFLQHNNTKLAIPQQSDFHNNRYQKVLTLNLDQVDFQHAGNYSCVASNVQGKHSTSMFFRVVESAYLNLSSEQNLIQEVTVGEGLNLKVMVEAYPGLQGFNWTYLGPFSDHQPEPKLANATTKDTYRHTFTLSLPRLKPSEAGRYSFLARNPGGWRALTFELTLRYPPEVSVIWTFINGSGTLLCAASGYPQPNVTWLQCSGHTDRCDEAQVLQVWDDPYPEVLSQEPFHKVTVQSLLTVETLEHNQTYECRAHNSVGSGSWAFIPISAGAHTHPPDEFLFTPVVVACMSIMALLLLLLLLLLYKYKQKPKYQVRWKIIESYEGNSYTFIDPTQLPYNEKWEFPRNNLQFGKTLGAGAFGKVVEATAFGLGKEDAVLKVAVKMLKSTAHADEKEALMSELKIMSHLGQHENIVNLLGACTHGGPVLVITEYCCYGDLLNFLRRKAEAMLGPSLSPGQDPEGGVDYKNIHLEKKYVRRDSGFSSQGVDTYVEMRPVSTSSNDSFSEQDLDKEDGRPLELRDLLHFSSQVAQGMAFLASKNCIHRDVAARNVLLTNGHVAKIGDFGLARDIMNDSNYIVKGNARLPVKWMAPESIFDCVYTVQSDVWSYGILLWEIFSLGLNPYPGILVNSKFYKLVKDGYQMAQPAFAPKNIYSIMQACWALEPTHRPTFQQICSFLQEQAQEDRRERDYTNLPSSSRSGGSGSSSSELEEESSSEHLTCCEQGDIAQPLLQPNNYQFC
Glucocorticoid receptor (Homo sapiens), sequence (P04150 whole entry, the tested form may be a part): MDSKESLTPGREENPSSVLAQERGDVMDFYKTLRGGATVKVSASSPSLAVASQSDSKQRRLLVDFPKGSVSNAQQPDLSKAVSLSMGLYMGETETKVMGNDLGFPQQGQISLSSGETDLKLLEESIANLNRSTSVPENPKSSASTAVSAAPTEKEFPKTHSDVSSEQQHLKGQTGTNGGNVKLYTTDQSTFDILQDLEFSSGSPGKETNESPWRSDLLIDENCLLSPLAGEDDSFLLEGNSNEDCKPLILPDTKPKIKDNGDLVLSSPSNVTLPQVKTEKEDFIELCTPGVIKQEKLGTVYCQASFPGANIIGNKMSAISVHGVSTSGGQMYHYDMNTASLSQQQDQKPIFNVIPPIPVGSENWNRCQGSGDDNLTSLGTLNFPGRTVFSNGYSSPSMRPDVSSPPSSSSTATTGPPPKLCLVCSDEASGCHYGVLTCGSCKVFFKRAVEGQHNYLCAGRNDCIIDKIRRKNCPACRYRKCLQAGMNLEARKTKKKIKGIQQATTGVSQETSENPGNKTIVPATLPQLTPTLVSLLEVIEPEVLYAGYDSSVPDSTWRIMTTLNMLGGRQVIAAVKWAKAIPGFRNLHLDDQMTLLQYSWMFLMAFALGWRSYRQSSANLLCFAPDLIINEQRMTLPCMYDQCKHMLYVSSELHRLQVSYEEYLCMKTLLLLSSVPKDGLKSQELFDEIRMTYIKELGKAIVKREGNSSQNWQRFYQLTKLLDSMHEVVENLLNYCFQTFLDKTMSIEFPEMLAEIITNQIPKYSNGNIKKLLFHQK
Epidermal growth factor receptor, sequence (P00533 whole entry, the tested form may be a part): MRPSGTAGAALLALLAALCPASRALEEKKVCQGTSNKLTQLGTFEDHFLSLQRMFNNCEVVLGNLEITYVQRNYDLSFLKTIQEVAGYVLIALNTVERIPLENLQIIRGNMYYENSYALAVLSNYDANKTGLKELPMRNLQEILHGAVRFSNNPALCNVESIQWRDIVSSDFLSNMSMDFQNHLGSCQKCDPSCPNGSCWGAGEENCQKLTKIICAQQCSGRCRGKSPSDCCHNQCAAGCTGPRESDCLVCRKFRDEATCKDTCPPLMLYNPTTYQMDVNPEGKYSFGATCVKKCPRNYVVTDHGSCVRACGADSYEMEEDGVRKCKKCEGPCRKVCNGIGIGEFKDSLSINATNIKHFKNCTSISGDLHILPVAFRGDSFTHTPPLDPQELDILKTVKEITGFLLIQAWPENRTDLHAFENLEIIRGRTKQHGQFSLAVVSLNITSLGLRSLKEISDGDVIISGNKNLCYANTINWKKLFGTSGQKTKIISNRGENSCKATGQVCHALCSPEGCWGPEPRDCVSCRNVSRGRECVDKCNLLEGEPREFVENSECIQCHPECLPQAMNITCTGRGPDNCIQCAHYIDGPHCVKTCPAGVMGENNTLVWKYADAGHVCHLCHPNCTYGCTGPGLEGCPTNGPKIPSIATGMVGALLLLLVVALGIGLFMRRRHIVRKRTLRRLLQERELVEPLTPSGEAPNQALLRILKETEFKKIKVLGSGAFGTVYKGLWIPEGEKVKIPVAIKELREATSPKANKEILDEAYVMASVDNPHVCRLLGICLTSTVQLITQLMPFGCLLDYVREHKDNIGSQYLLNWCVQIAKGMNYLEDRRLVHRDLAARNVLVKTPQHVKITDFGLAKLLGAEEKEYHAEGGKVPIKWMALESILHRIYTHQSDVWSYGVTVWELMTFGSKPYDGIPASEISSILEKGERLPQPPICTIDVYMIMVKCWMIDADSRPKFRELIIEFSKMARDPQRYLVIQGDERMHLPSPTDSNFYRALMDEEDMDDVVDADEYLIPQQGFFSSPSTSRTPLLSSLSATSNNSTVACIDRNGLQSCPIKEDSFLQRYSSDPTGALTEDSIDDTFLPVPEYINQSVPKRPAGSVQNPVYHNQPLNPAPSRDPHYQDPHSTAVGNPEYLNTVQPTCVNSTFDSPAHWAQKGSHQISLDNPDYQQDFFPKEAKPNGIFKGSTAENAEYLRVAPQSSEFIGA
Beta-3 adrenergic receptor (Homo sapiens), sequence (P13945 whole entry, looked up, the tested form may be a part): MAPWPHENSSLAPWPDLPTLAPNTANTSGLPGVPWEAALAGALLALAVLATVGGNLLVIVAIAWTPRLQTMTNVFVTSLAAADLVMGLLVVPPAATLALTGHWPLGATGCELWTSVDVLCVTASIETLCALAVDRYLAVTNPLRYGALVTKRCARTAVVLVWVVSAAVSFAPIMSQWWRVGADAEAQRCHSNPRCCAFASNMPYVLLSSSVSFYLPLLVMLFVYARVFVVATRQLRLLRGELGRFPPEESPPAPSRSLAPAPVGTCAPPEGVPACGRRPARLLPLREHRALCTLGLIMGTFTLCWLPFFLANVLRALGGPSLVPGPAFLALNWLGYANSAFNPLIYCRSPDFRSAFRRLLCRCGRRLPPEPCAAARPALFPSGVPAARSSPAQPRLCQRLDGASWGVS
Type-1 angiotensin II receptor (Homo sapiens), sequence (P30556 whole entry): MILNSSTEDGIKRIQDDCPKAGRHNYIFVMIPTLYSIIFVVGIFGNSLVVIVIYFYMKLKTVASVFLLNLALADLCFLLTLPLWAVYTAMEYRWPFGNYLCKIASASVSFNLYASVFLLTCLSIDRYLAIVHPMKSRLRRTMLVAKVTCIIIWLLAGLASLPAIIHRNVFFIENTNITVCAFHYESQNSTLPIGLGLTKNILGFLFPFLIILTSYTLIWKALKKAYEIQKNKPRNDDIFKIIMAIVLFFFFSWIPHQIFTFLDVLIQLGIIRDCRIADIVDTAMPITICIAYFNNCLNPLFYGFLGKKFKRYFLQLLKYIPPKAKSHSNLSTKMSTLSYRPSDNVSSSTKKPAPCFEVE

Question: For C[C@@H]1C[C@H]1C(=O)N1CCN(c2cnc(C#N)c(-c3cnn(C)c3)n2)C[C@H]1C, which IC50 [1] is on record?
Answer: > 100 µM

Question: And the IC50 [2]?
Answer: > 100 µM

Question: What about the IC50 [3] of the same compound?
Answer: > 100 µM

Question: What about the IC50 [4] of the same compound?
Answer: > 100 µM

Question: And the IC50 [5]?
Answer: > 100 µM

Question: What about the IC50 [6] of the same compound?
Answer: > 100 µM

Question: What about the IC50 [7] of the same compound?
Answer: > 100 µM

Question: What about the IC50 [8] of the same compound?
Answer: > 100 µM

Question: What about the inhibition [9] of the same compound?
Answer: -9%

Question: What about the IC50 [10] of the same compound?
Answer: > 100 µM

Question: What about the inhibition [11] of the same compound?
Answer: -4%

Question: What about the IC50 [12] of the same compound?
Answer: > 100 µM

Question: And the IC50 [13]?
Answer: > 100 µM

Question: And the inhibition [14]?
Answer: 18%

Question: What about the Vd [15] of the same compound?
Answer: 1.1 L/kg

Question: And the inhibition [16]?
Answer: 7%

Question: What about the IC50 [17] of the same compound?
Answer: > 100 µM

Question: What about the inhibition [18] of the same compound?
Answer: 37%

Question: And the inhibition [19]?
Answer: 5%

Question: And the IC50 [20]?
Answer: > 100 µM

Question: And the inhibition [21]?
Answer: 0%

Question: What about the inhibition [22] of the same compound?
Answer: -1%

Question: And the IC50 [23]?
Answer: > 100 µM

Question: What about the inhibition [24] of the same compound?
Answer: 0%

Question: And the IC50 [25]?
Answer: > 100 µM
